This is an account of results in publication PMC4496781, “Functional Roles of Aromatic Residues and Helices of Papiliocin in its Antimicrobial and Anti-inflammatory Activities” (Scientific Reports, 2015).

Converted amounts (≈) assume the structure as drawn.

Data set [1] relates to RAW264.7 macrophage cells. Briefly: Cytotoxicity, MTT. In kind it is cell-based, mouse. On the procedure: (§1) We examined the cytotoxicity against human erythrocytes. […] Next, we examined the cytotoxicity of the peptides against RAW264.7 macrophage cells. We assessed the effects of the peptides on cell growth by measuring mitochondrial reduction of MTT to a colored product in live cells. […] On the other hand, PapC produced high cytotoxicity against RAW264.7 cells, even at low concentrations. […] In case of PapN-2A, Pap-5A, and Pap-2A5A, the cell survival rates at a peptide concentration of 100 μM were approximately 90% or more. Thus, Trp^2 and Phe^5 are important for the cytotoxic activity of papiliocin toward RAW264.7 cells.
(§2) MICs of the peptides against six standard bacteria and four multidrug-resistant bacteria were determined by a broth microdilution assay as described previously. […] Cytotoxicities against mammalian cells were measured against human RBCs, mouse macrophage-derived RAW264.7 cells, and fibroblast NIH-3T3 cells. The anti-inflammatory activities of the peptides were examined by inhibiting nitrite production in LPS-stimulated RAW264.7 cells.

The next data set has as its system human erythrocytes. As to the kind of experiment: Hemolytic activity. In kind it is cell-based. The settings on record: for MHC (minimal peptide concentration that produces hemolysis): human RBCs, 200 μM entered when no detectable hemolysis at 100 μM. Here is the method: as §1, §2
The test system of data set [2] is gram-positive bacteria (B. subtilis, E. faecalis, S. aureus). The settings on record: for Therapeutic Index (MHC/GM), gram-positive: ratio MHC (μM) over GM of MIC (μM); for GM of the MIC values, gram-positive: three gram-positive standard strains, 256 μM used when no activity at 128 μM. On the procedure: (§3) This property is assessed by the therapeutic index which can be defined as a ratio of the […] against human hRBCs to the MIC against bacterial cells.
as §2

Data set [3] concerns gram-negative bacteria (E. coli, S. typhimurium, P. aeruginosa). The settings on record: for Therapeutic Index (MHC/GM), gram-negative: ratio MHC (μM) over GM of MIC (μM); for GM of the MIC values, gram-negative: three gram-negative standard strains, 256 μM used when no activity at 128 μM. On the procedure: as §3, §2
The subject of a further data set is MDRAB 12035(R). The settings on record: broth microdilution, 16 h; unit not given. Here is the method:
(§4) We examined the antimicrobial activities of the peptides against multidrug-resistant bacterial strains, including four gram-negative species (S. typhimurium 8009(R), E. coli 1229(R), P. aeruginosa 2095(R), and A. baumannii 12035(R); Table 3).
as §2
Background: In broth dilution the organism is exposed to a series of concentrations in liquid medium.

Another data set deals with MDRST 8009(R). As to conditions: broth microdilution, 16 h; unit not given. Here is the method:
as §4, §2

The test system of another data set is MDREC 1229(R). The settings on record: broth microdilution, 16 h; unit not given. Here is the method: as §4, §2
Another data set concerns MDRPA 2095(R). The settings on record: broth microdilution, 16 h; unit not given. Here is the method: as §4, §2
For the next data set, the system named is Eenterococcus faecalis. The settings on record: broth microdilution, 16 h incubation; three independent experiments in triplicate, SD 14.0%. On the procedure: as §2
Data set [4] in a line: Calcein leakage from zwitterionic LUVs. As to conditions: EYPC/CH 10:1 LUVs, mimic human erythrocytes. Here is the method: Figure 5 Dose-response curves of calcein leakage from (A) egg yolk phosphatidylcholine (EYPC)/egg yolk phosphatidylglycerol (EYPG) (7:3, w:w) and (B) EYPC/cholesterol (CH) large unilamellar vesicles (LUVs; 10:1, w-w) induced by the peptides. Calcein leakage was measured 2 min after the addition of papiliocin. The lipid concentration used in the leakage experiments was 64 μM.
None of the peptides containing the N-terminal helix permeated zwitterionic vesicles (10:1 [w/w] EYPC/CH) effectively. Zwitterionic vesicles mimic the outer leaflet components of human erythrocytes.
In order to investigate the mode of action, membrane permeabilization ability was monitored using a model membrane and E.coli. Calcein leakage induced by the peptides was measured in egg yolk phosphatidylcholine (EYPC)/egg yolk phosphatidylglycerol (EYPG) (7:3, w/w) and EYPC/cholesterol (CH) large unilamellar vesicles (LUVs; 10:1, w:w) as described previously. The depolarization assay was conducted with intact E. coli bacteria (KCTC 1682) as well as E. coli spheroplasts (ATCC 25922)[51][52]. The ability of peptide to depolarize the membrane is indicated by an increase in the fluorescence of diSC3-5. […] The membrane potential dissipating activity of the peptides can be calculated as follows: […]

A further data set concerns E. coli (KCTC 1682). As to the kind of experiment: Time-killing kinetics. In kind it is cell-based, Escherichia coli. The settings on record: even at 4× MIC, 37 °C.
Data set [5] relates to LPS-stimulated RAW264.7 cells. As to the kind of experiment: Inhibition of NO (nitrite) production. The settings on record: 10 μM peptide stated for PapN series. In kind it is cell-based, mouse.
Excerpt: When released from gram-negative bacteria, LPS causes septic shock by inducing the production of pro-inflammatory cytokines and NO[33]. To examine the structural mechanism of the anti-inflammatory activity of papiliocin, we indirectly measured inhibition of NO production by the peptides in LPS-simulated RAW264.7 macrophages. […] Papiliocin was markedly more efficient than papiliocin-2A, papiliocin-5A, or papiliocin-2A5A, implying that Trp^2 and Phe^5 are important for anti-inflammatory activity.
as §2

Data set [6] can be described thus: STD-NMR of peptides bound to LPS. In kind it is binding. As to conditions: 0.5 mM peptide, 0.1 mg/mL LPS in D2O, pH 5.9, 298 K. Here is the method: To investigate the mode of peptide interaction with LPS, we performed STD-NMR experiments.
(A) Papiliocin, (B) PapN, and (C) PapC. Spectral differences primarily constituted resonances fromn the peptide protons bound to LPS. The STD experiments were carried out using a peptide concentration of 0.5 mM in presence of 0.1 mg/mL LPS in D2O, pH 5.9 at 298 K.

A further data set concerns Bacillus subtilis. As to conditions: broth microdilution, 16 h incubation; three independent experiments in triplicate, SD 14.0%. Here is the method: as §2
The next data set concerns Staphylococcus aureus. The settings on record: broth microdilution, 16 h incubation; three independent experiments in triplicate, SD 14.0%. Here is the method: as §2
The next data set concerns Pseudomonas aeruginosa. As to conditions: broth microdilution, 16 h incubation; three independent experiments in triplicate, SD 14.0%. On the procedure: as §2
A further data set has as its system Escherichia coli. The settings on record: broth microdilution, 16 h incubation; three independent experiments in triplicate, SD 14.0%. On the procedure: as §2
The subject of another data set is Salmonella typhimurium. As to conditions: broth microdilution, 16 h incubation; three independent experiments in triplicate, SD 14.0%. On the procedure:
as §2

For `CC[C@H](C)[C@H](NC(=O)CN)C(=O)NCC(=O)N[C@@H](C)C(=O)N[C@H](C(=O)N[C@@H](CC(C)C)C(=O)N[C@@H](CCCCN)C(=O)N[C@H](C(=O)N[C@@H](CC(C)C)C(=O)N[C@H](C(=O)N[C@H](C(=O)NCC(=O)N[C@@H](CC(C)C)C(=O)N1CCC[C@H]1C(=O)N[C@@H](C)C(=O)N[C@@H](CC(C)C)C(=O)N[C@H](C(=O)N[C@@H](CO)C(=O)N[C@@H](Cc1c[nH]c2ccccc12)C(=O)N[C@H](C(=O)N[C@@H](CCCCN)C(=O)N[C@@H](CCCNC(=N)N)C(=O)N[C@@H](CCCCN)C(=O)N[C@@H](CCCNC(=N)N)C(=O)N[C@@H](CCC(N)=O)C(=O)N[C@@H](CCC(N)=O)C(N)=O)[C@@H](C)CC)[C@@H](C)CC)[C@@H](C)O)[C@@H](C)O)C(C)C)C(C)C` [Melittin, reference compound], in data set [1] (hRBCs and RAW264.7 cells (Fig. 4A,B)), the “cytotoxicity at the peptide's MIC” value is listed as “high cytotoxicity at its MIC”. In addition, the “MHC (minimal peptide concentration that produces hemolysis)” value in the data set on human erythrocytes stood at 0.391 µM. For the same compound, in data set [2], the “Therapeutic Index (MHC/GM), gram-positive” value worked out at 0.117 and the “GM of the MIC values, gram-positive” value turned out to be 3.33 µM. For the same compound, in data set [3], the “Therapeutic Index (MHC/GM), gram-negative” value was 0.098 and the “GM of the MIC values, gram-negative” value was found to be 4.00 µM. For the same compound, in the data set with MDRAB 12035(R), the “MIC, MDRAB 12035(R)” value is 4.00 µM (≈ 11.4 µg/mL). Moreover, the “MIC, MDRST 8009(R)” value in the data set on MDRST 8009(R) was 8.00 µM (≈ 22.8 µg/mL). The “MIC, MDREC 1229(R)” value against MDREC 1229(R) worked out at 8.00 µM (≈ 22.8 µg/mL). In addition, the “MIC, MDRPA 2095(R)” value against MDRPA 2095(R) was 2.00 µM (≈ 5.69 µg/mL). For the same compound, the “MIC, Eenterococcus faecalis” value with Eenterococcus faecalis worked out at 2.00 µM (≈ 5.69 µg/mL). Besides, in [4], the “permeabilization of zwitterionic vesicles, in words” value was “membrane-disrupting activities against both negatively charged and zwitterionic vesicles”.
As to “AVAVVGQAATVVK-NH2 [PapC, C-terminal analog composed of C-terminal helix residues Ala25–Lys37 of papiliocin]”, the “survival rate of RAW264.7 cells” value in data set [1] (MTT, 10 μM peptide) was determined as 44.2%. Moreover, the “killing of E. coli within an hour” value in the data set with E. coli (KCTC 1682) is recorded as “did not detectably kill bacteria within an hour”. In addition, the “MHC (minimal peptide concentration that produces hemolysis)” value in the data set on human erythrocytes was found to be 1.56 µM. In the data set on human erythrocytes (human erythrocytes, 6.25 μM peptide), this compound gave a hemolytic activity of 49%. For the same compound, in [2], the “Therapeutic Index (MHC/GM), gram-positive” value came to 0.006 and the “GM of the MIC values, gram-positive” value came out at 256 µM. In data set [3], the “Therapeutic Index (MHC/GM), gram-negative” value came to 0.007 and the “GM of the MIC values, gram-negative” value is 213 µM. The “inhibition of NO production, in words” value in data set [5] is given as “does not inhibit NO production”. In addition, in data set [6], the “STD effect in presence of LPS” value is given as “not detected for any region”. The “MIC, MDRAB 12035(R)” value against MDRAB 12035(R) is above 128 µM. Moreover, in the data set on MDRST 8009(R), the “MIC, MDRST 8009(R)” value is above 128 µM. Moreover, the “MIC, MDREC 1229(R)” value against MDREC 1229(R) is above 128 µM. Moreover, the “MIC, MDRPA 2095(R)” value against MDRPA 2095(R) was above 128 µM. In the data set with Bacillus subtilis, the “MIC, Bacillus subtilis” value is above 128 µM. In addition, in the data set with Eenterococcus faecalis, the “MIC, Eenterococcus faecalis” value is above 128 µM. Besides, the “MIC, Staphylococcus aureus” value with Staphylococcus aureus is above 128 µM. The “MIC, Pseudomonas aeruginosa” value in the data set with Pseudomonas aeruginosa was above 128 µM. Also, the “MIC, Escherichia coli” value against Escherichia coli was determined as 128 µM. The “MIC, Salmonella typhimurium” value with Salmonella typhimurium was above 128 µM. Besides, the “permeabilization of zwitterionic vesicles, in words” value in data set [4] was “permeabilized zwitterionic vesicles effectively”.
